Experimental findings from US20220331435A1, “PROTAC SMALL MOLECULE COMPOUND AND USE THEREOF” (ZHUHAI YUFAN BIOTECHNOLOGIES CO., LTD, priority 2019, published 2022) are described below.

What all share (format): cell-based
Test [1] deals with T1, HPK1 (Homo sapiens, UniProt Q92918).
T1 construct: endogenous in cells; host or cells: Jurkat cells
Kind of test: HPK1 degradation in Jurkat cells (Western blot). The following applies: for HPK1 degradation rate at 0.1 µM: Jurkat, treatment time 6 h; for Degradation rate (10 nM) / Degradation rate (100 nM): HPK1, treatment time 12 h; for Degradation rate (10 nM): compound 10 nM; for Degradation rate (12 h): 12 h (Table 2). The protocol:
(§1) S1: Jurkat cells were resuscitated, and then subjected to adherent culture for 12 h, compounds were added, the compound concentrations were fixed (treatment time was 0 h, 3 h, 6 h, 12 h, 24 h and 72 h) or the treatment time was fixed (compound concentrations were 0 nM, 1 nM, 10 nM, 100 nM and 1000 nM);
(§2) S2: the culture solution was poured out, the cells were washed with 3 mL of PBS pre-cooled at 4° C., then the washing solution was discarded, an appropriate amount of lysis solution containing PMSF (100×) was added according to the cell amount, the mixture was uniformly mixed, then placed on ice for lysis for 30 min, and centrifuged at 12000 rpm and at 4° C. for 5 min, (a centrifuge was started for pre-cooling in advance), and the centrifuged supernatant was transferred into a new centrifuge tube and prepared for quantification;
(§3) S3: an BCA quantitative reagent of Pierce™ BCA Protein Assay Kit (23225) was added at 200 uL/well, then 20 uL of BSA with known different concentrations was added to prepare a protein quantitative standard curve and a sample protein to be detected with avoiding generation of bubbles, the mixture was incubated for 30 min in the dark at 37° C., an OD value was measured at 562 nm, then an appropriate amount of SDS-PAGE loading buffer was added to the protein sample, and the reaction mixture was heated for 5 min in a boiling water bath to fully denature the protein, and stored at −20° C. for later use;
(§4) S4: an SDS-PAGE gel was prepared, wherein the voltage of a concentrated gel was 90 V, and the voltage of a separation gel was 120 V, a membrane was transferred for 1 h at 4° C. and at a voltage of 100 V, after the membrane was transferred, the protein membrane was immediately placed in a prepared 5% BSA solution, and the mixture was slowly shaken on a shaker, and sealed for 1 h at room temperature;
(§5) S5: the primary antibody was diluted according to an appropriate proportion according to the specifications of HPK1 Antibody (4472S CST), GLK (D1L4G) Rabbit mAb (92427S CST), SLP-76 (D1R1A) Rabbit mAb (70896S CST), Phospho-SLP-76 (Ser376) (D7S1K) XP® Rabbit mAb (92711T CST) and β-actin Mouse Monoclonal antibody (BE0021 easybio), then incubated overnight with slow shaking at 4° C., and washed 3 times with PBST for 10 min/time;
(§6) S6: Goat Anti-Rabbit IgG (H&L)-HRP Conjugated (BE0101 easybio) or Goat Anti-Mouse IgG (H&L)-HRP Conjugated (BE0102 easybio) was selected according to the primary antibody, and the secondary antibody was diluted according to an appropriate proportion according to the specification of the secondary antibody, then incubated for 1 h at room temperature with slow shaking, and washed 3 times with PBST for 10 min/time; and
(§7) S7: an ECL luminescence was added, the results were observed by a developing machine, Western results were quantified using Image J software, and the degradation rates (HPK1 and GLK) or inhibition rates (SLP76 Ser376 phosphorylation) were calculated by comparison with a control group to which no compounds were added, (degradation rate/inhibition rate=1−administration group/control group).
Background: In western blotting, separated proteins are transferred to a membrane and probed.

Another test addresses T2, GLK (Homo sapiens, UniProt Q8IVH8).
T2 construct: endogenous in cells; host or cells: Jurkat cells
T2 sequence (Q8IVH8 1-894): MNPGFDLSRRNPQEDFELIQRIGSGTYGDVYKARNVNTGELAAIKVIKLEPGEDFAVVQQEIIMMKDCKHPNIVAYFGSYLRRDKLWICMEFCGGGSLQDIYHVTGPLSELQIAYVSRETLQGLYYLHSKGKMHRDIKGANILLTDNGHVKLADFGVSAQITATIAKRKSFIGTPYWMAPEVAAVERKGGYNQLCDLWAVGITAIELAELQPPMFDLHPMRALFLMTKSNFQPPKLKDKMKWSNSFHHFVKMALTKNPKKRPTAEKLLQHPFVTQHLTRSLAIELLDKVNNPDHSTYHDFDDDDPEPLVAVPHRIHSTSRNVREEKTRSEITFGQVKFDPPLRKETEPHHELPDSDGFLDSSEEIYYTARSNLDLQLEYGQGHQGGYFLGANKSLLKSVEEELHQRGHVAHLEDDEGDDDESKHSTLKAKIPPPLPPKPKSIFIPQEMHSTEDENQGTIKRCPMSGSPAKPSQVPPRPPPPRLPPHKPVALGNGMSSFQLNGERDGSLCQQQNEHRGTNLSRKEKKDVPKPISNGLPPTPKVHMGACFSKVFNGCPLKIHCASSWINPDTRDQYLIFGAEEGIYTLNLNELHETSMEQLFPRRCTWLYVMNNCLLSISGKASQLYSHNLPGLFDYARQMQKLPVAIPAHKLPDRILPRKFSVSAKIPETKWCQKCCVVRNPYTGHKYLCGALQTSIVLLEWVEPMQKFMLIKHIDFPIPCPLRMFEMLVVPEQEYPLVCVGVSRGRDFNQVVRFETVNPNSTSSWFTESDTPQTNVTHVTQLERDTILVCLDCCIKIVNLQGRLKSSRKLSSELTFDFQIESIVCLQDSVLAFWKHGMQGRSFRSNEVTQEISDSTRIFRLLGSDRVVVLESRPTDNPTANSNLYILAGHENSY
Nature of the test: GLK degradation in Jurkat cells (Western blot). The following applies: treatment time 6 h, compound 100 nM. The protocol:
as §1, §2, §3, §4, §5, §6, §7

Test [2] concerns SLP76 Ser376 phosphorylation. Nature of the test: Inhibition of SLP76 Ser376 phosphorylation in Jurkat cells (Western blot). The following applies: Homo sapiens, compound 100 nM. Here is the method:
as §1, §2, §3, §4, §5, §6, §7

The target of test [3] is T1, HPK1. Nature of the test: HPK1 degradation in Jurkat cells (Western blot). The following applies: compound 100 nM.
Where [4] appears, read: treatment time 6 h, read-out: SLP76 phosphorylation inhibition rate.

Read-outs that look alike come from different tables or passages of the source.

T1 sequence (Q92918 whole entry): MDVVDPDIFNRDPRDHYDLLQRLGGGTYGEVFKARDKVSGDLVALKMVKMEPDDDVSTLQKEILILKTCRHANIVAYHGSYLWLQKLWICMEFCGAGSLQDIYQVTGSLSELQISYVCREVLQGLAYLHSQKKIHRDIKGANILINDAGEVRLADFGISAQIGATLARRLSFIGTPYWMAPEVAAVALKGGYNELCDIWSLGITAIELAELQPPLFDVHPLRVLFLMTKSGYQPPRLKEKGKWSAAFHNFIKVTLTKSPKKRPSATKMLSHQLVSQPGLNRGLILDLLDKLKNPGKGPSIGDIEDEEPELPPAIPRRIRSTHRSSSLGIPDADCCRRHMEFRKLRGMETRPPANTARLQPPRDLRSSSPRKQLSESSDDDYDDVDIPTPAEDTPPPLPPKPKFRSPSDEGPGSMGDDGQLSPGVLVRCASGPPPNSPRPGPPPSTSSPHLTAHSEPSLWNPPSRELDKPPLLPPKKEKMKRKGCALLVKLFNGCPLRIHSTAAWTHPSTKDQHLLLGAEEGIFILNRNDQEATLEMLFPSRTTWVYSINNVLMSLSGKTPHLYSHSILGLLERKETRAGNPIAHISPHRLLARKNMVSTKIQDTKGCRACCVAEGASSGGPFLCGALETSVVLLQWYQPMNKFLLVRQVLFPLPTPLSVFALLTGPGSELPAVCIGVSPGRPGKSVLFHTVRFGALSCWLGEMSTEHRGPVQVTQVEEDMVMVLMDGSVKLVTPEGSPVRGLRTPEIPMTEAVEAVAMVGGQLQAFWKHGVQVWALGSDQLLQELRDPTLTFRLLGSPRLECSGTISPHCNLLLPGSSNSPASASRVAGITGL

Turning to `CC(C)(O)C#Cc1cccc(COc2cc(-c3cnc(C4CCN(C(=O)CCOCCCCCCCCOc5cccc6c5C(=O)N(C5CCC(=O)NC5=O)C6=O)CC4)s3)cnc2N)c1` (centres unmarked) [Compound C11], the HPK1 degradation rate at 0.1 µM at HPK1 [1] (6 h, compound 100 nM) is 30%. The GLK degradation rate on GLK was −36%.

Take `CN1C(=O)CCC(N2C(=O)c3cccc(OCCCCCCCC(=O)N4CCC(c5ncc(-c6cnc(N)c(OCc7cccc(C#CC(C)(C)O)c7)c6)s5)CC4)c3C2=O)C1=O` (centres unmarked) [Compound C2]: the “Degradation rate (10 nM)” value at HPK1 [1] is on record as 39%. Also, the “Degradation rate (100 nM)” value at HPK1 [1] (compound 100 nM) is on record as 33%.

As to `CC(C)(O)C#Cc1cccc(COc2cc(-c3cnc(C4CCN(C(=O)CCNC(=O)CCCCCOc5cccc6c5C(=O)N(C5CCC(=O)NC5=O)C6=O)CC4)s3)cnc2N)c1` (centres unmarked) [Compound C15], the HPK1 degradation rate at 0.1 µM at HPK1 [1] (6 h, compound 100 nM) was -27%. Further, on GLK, the GLK degradation rate is listed as 38%. In test [2] (setting [4]), the inhibition – broadly, the drop in the measured response relative to a control, in per cent – at 0.1 µM was -7%.

Take `CC(C)(O)C#Cc1cccc(COc2cc(-c3cnc(C4CCN(C(=O)C5CCN(C(=O)CCCCCCOc6cccc7c6C(=O)N(C6CCC(=O)NC6=O)C7=O)CC5)CC4)s3)cnc2N)c1` (centres unmarked) [Compound C19]: the inhibition at 0.1 µM in test [2] (setting [4]) was 3%.

Consider `CC(C)(O)C#Cc1cccc(COc2cc(-c3cnc(C4CCN(C(=O)CCNC(=O)CCCCCCOc5cccc6c5C(=O)N(C5CCC(=O)NC5=O)C6=O)CC4)s3)cnc2N)c1` (centres unmarked) [Compound C16], for which, on HPK1 [1] (6 h, compound 100 nM), the HPK1 degradation rate at 0.1 µM came out at 49%. Further, on GLK, the GLK degradation rate came out at 74%. Further, the inhibition at 0.1 µM in test [2] (setting [4]) stood at 24%.

Regarding `CC(C)(O)C#Cc1cccc(COc2cc(-c3cnc(C4CCN(C(=O)C5CCN(C(=O)CCCCCOc6cccc7c6C(=O)N(C6CCC(=O)NC6=O)C7=O)CC5)CC4)s3)cnc2N)c1` (centres unmarked) [Compound C18], the HPK1 degradation rate at 0.1 µM on HPK1 [1] (6 h, compound 100 nM) was 39%. Also, on GLK, the GLK degradation rate was 71%. For the same compound, in test [2] (setting [4]), the inhibition at 0.1 µM was 34%.

With `CC(C)(O)C#Cc1cccc(COc2cc(-c3cnc(C4CCN(C(=O)Cn5cc(COCCOc6cccc7c6C(=O)N(C6CCC(=O)NC6=O)C7=O)nn5)CC4)s3)cnc2N)c1` (centres unmarked) [Compound C20], the “HPK1 degradation rate (12 h)” value at HPK1 [1] (12 h (in-cell remark of Table 4), compound 100 nM) is reported as 41%. Further, the HPK1 degradation rate at 0.1 µM at HPK1 [1] (6 h, compound 100 nM) is -15%. For the same compound, the GLK degradation rate at GLK was 15%. For the same compound, the inhibition at 0.1 µM in test [2] (setting [4]) is 7%.

For `CC(C)(O)C#Cc1cccc(COc2cc(-c3cnc(C4CCN(C(=O)CCOCCOCCOCCOCCOc5cccc6c5C(=O)N(C5CCC(=O)NC5=O)C6=O)CC4)s3)cnc2N)c1` (centres unmarked) [Compound C7], at HPK1 [1] (HPK1, compound 100 nM), the “Degradation rate (12 h)” value is given as 58% and the “Degradation rate (24 h)” value is 86%. Further, the “Degradation rate (72 h)” value on HPK1 [1] (HPK1, compound 100 nM, 72 h) is recorded as −9%. For the same compound, at HPK1 [1], the “Degradation rate (10 nM)” value stood at 72%. Besides, the “Degradation rate (100 nM)” value at HPK1 [1] (compound 100 nM) is 68%. For the same compound, the “Degradation rate (48 h)” value at HPK1 [3] is −40%.

For the compound `CC(C)(O)C#Cc1cccc(COc2cc(-c3cnc(C4CCN(C(=O)CCCCCCCCCOc5cccc6c5C(=O)N(C5CCC(=O)NC5=O)C6=O)CC4)s3)cnc2N)c1` (centres unmarked) [Compound C3], the “Degradation rate (3 h)” value on HPK1 [1] (HPK1, compound 100 nM, 3 h) was found to be 54%. The “Degradation rate (6 h)” value on HPK1 [1] (HPK1, compound 100 nM, 6 h) is listed as 52%. In addition, on HPK1 [1] (HPK1, compound 100 nM), the “Degradation rate (12 h)” value was found to be 58% and the “Degradation rate (24 h)” value was 3%. In addition, at HPK1 [1], the “Degradation rate (10 nM)” value is 15%. Also, the “Degradation rate (100 nM)” value on HPK1 [1] (compound 100 nM) came to 75%. For the same compound, on HPK1 [1] (compound 100 nM, maximum over different time points, read-out: Maximum degradation rate of HPK1), the Dmax at 0.1 µM turned out to be 62%. Besides, in test [2] (maximum over different time points, read-out: Maximum inhibition rate of SLP76 Ser376 phosphorylation), the inhibition at 0.1 µM was 81%. On HPK1 [3], the “Degradation rate (48 h)” value is recorded as 11%.

Consider `CC(C)(O)C#Cc1cccc(COc2cc(-c3cnc(C4CCN(C(=O)C5CCN(C(=O)CCCCOc6cccc7c6C(=O)N(C6CCC(=O)NC6=O)C7=O)CC5)CC4)s3)cnc2N)c1` (centres unmarked) [Compound C17], for which the HPK1 degradation rate at 0.1 µM at HPK1 [1] (6 h, compound 100 nM) is -7%. Besides, on GLK, the GLK degradation rate stood at 42%. Also, the inhibition at 0.1 µM in test [2] (setting [4]) stood at 22%.

Regarding `CC(C)(O)C#Cc1cccc(COc2cc(-c3cnc(C4CCN(C(=O)CCOCCCCCOc5cccc6c5C(=O)N(C5CCC(=O)NC5=O)C6=O)CC4)s3)cnc2N)c1` (centres unmarked) [Compound C8], the HPK1 degradation rate at 0.1 µM at HPK1 [1] (6 h, compound 100 nM) was found to be 66%. Further, at GLK, the GLK degradation rate is 34%. Further, the inhibition at 0.1 µM in test [2] (setting [4]) is 51%.

Take `CC(C)(O)C#Cc1cccc(COc2cc(-c3cnc(C4CCN(C(=O)CCNC(=O)CCCOc5cccc6c5C(=O)N(C5CCC(=O)NC5=O)C6=O)CC4)s3)cnc2N)c1` (centres unmarked) [Compound C13]: the HPK1 degradation rate at 0.1 µM on HPK1 [1] (6 h, compound 100 nM) came out at 38%. Besides, the GLK degradation rate at GLK was determined as 43%. The inhibition at 0.1 µM in test [2] (setting [4]) came out at 4%.

Turning to `CC(C)(O)C#Cc1cccc(COc2cc(-c3cnc(C4CCN(C(=O)CCCCCCCOc5cccc6c5C(=O)N(C5CCC(=O)NC5=O)C6=O)CC4)s3)cnc2N)c1` (centres unmarked) [Compound C1], the “Degradation rate (10 nM)” value on HPK1 [1] worked out at 47%. Further, the “Degradation rate (100 nM)” value at HPK1 [1] (compound 100 nM) is 68%.

Take `CC(C)(O)C#Cc1cccc(COc2cc(-c3cnc(C4CCN(C(=O)CCOCCCCCCOc5cccc6c5C(=O)N(C5CCC(=O)NC5=O)C6=O)CC4)s3)cnc2N)c1` (centres unmarked) [Compound C9]: the HPK1 degradation rate at 0.1 µM on HPK1 [1] (6 h, compound 100 nM) came out at 46%. The GLK degradation rate on GLK is recorded as −34%. The inhibition at 0.1 µM in test [2] (setting [4]) was found to be 61%.

As for `CC(C)(O)C#Cc1cccc(COc2cc(-c3cnc(C4CCN(C(=O)CCNC(=O)CCCCOc5cccc6c5C(=O)N(C5CCC(=O)NC5=O)C6=O)CC4)s3)cnc2N)c1` (centres unmarked) [Compound C14], the HPK1 degradation rate at 0.1 µM on HPK1 [1] (6 h, compound 100 nM) worked out at 58%. The GLK degradation rate at GLK is on record as 60%. The inhibition at 0.1 µM in test [2] (setting [4]) was found to be 26%.
